Source: the NIST ThermoML archive (doi:10.1021/je0602519)
± gives the expanded uncertainty stated by the source.

Legend:
[1] = Liquid; for viscosity / mass density: 101 kPa; for mass density: Pycnometric method; for speed of sound: 101.33 kPa, Frequency=2 MHz, Linear variable-path acoustic interferometer
[2] = xn = mol fraction of the nth substance listed; conditions: 101 kPa, Liquid, x1 = 1; for speed of sound: Frequency=2 MHz, Linear variable-path acoustic interferometer; for mass density: Pycnometric method

Compound	viscosity ([1]; 303.15 K) [mPa·s]	mass density ([1]; 303.15 K) [kg/m3]	speed of sound ([1]; 303.15 K) [m/s]	viscosity ([1]; 313.15 K) [mPa·s]	mass density ([1]; 313.15 K) [kg/m3]	speed of sound ([1]; 313.15 K) [m/s]	speed of sound ([2]; 303.15 K) [m/s]	mass density ([2]; 303.15 K) [kg/m3]	viscosity ([2]; 303.15 K) [mPa·s]	speed of sound ([2]; 313.15 K) [m/s]	mass density ([2]; 313.15 K) [kg/m3]	viscosity ([2]; 313.15 K) [mPa·s]
CCCCCCCCCCO [decan-1-ol]	9.716 ± 0.37	822.87 ± 0.29	1366 ± 3	6.82 ± 0.28	815.97 ± 0.31	1334 ± 3						
CCCCCCCO [heptan-1-ol]	5.048 ± 0.22	814.89 ± 0.29	1313 ± 3	3.712 ± 0.17	807.68 ± 0.3	1279 ± 3						
CCCCCCCCO [octan-1-ol]	6.433 ± 0.26	818.38 ± 0.29	1334 ± 3	4.603 ± 0.2	811.05 ± 0.3	1304 ± 3						
Cc1ccccc1 [toluene]	0.525 ± 0.029	856.62 ± 0.31	1289 ± 3	0.471 ± 0.027	847.03 ± 0.32	1256 ± 2						
Cc1ccccc1 [toluene] + CCCCCCCCCCO							1289 ± 3	856.62 ± 0.31	0.525 ± 0.029	1256 ± 2	847.03 ± 0.32	0.471 ± 0.027
Cc1ccccc1 [toluene] + CCCCCCCCO							1289 ± 3	856.62 ± 0.31	0.525 ± 0.029	1256 ± 2	847.03 ± 0.32	0.471 ± 0.027
Cc1ccccc1 [toluene] + CCCCCCCO							1289 ± 3	856.62 ± 0.31	0.525 ± 0.029	1256 ± 2	847.03 ± 0.32	0.471 ± 0.027
